Data on five molecules can be found in patent publication US11578055B2, “Triazacyclododecansulfonamide (“TCD”)-based protein secretion inhibitors” (KEZAR LIFE SCIENCES, priority 2018, dated 2023).

Data set [1] concerns PD1 signal sequence plus 10 amino acids fused to Gaussia Luciferase (PD1-ss+10aa/Gaussia Luciferase). Briefly: Dox Induced PD1-ss-Gluc Assay. In kind it is cell-based. As to conditions: 24 hr, read-out: 24 hr Dox Inducible PD1ssGluc 293FRT/TO: Mean IC50. In short, it runs like this: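 Compound dilutions in DMSO/media containing doxycycline were applied to a stable, inducible 293 T-REx line carrying the luciferase fusion, then incubated at 37 °C, 5% CO2. Where stereochemistry is not drawn, values relate to isomer mixtures.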

Data set [2] concerns full length TNFα (amino acids 1-233) fused to Gaussia Luciferase. As to the kind of experiment: Dox Induced TNFα-FL-Gluc Assay. In kind it is cell-based. The note with it: 24 hr, read-out: 24 hr Dox Inducible TNFaFLGluc 293FRT/TO: Mean IC50. Summed up:
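Compounds diluted in DMSO/medium with doxycycline were incubated at 37° C, 5% CO2 with 293 T-REx cells stably carrying a Tet-regulated TNFα(1-233)-Gaussia luciferase construct. Data for structures drawn without stereochemistry refer to stereoisomer mixtures.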

Data set [3] deals with full length IL-2 (amino acids 1-153) fused to Gaussia Luciferase. Briefly: Dox Induced IL2-FL-Gluc Assay. In kind it is cell-based. The note with it: 24 hr, read-out: 24 hr Dox Inducible IL2FLGluc 293FRT/TO: Mean IC50. In short, it runs like this:
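Compounds in DMSO/media with doxycycline were added to cells plated the previous day and incubated at 37° C, 5% CO2. Cells: stable Flp-In 293 T-REx line, Dox-regulated expression of IL-2 (aa 1-153) fused at its C-terminus to Gaussia luciferase.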

For data set [4], the system named is multiple myeloma cell line NCl-H929. As to the kind of experiment: H929 Cell Viability Assay. As to conditions: Homo sapiens, NCI-H929, 48 h. In kind it is cell-based, human. In short, it runs like this: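 Viability was determined by CellTiter-Glo luminescence after a 48 h, 37 °C exposure of NCI-H929 cells to serial compound dilutions in medium containing 10% FBS. Where stereochemistry is not shown, values refer to a mix of stereoisomers.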

Data set [5] relates to multiple myeloma cell line U266B1. As to the kind of experiment: U266 Cell Viability Assay. In kind it is cell-based, human. As to conditions: Homo sapiens, U-266, 48 hr. Summed up:
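Viability was measured by CellTiter-Glo luminescence after 48 h compound exposure at 37° C, 5% CO2. The cells were U266B1 multiple myeloma cells grown in RPMI 1640 plus 10% FBS. Where stereochemistry is not shown, values apply to the stereoisomer mixture.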

Data set [6] can be described thus: In Vitro Microsome Stability Assay (human). In kind it is in vitro ADME. Summed up:
(§1)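 Test article, added from a 0.25 mM DMSO stock, was incubated with liver microsomes (20 mg/mL stock) in 0.1 M potassium phosphate at 37° C, with the reaction started by NADPH. Samples were quenched with acetonitrile containing internal standard at 0 and 30 min and analysed by LC-MS/MS. Values are % remaining at 30 min versus 0 min, using IS-normalised AUC ratios.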

Data set [7] in a line: In Vitro Microsome Stability Assay (mouse). In kind it is in vitro ADME. In short, it runs like this: as §1
Data set [8] can be described thus: In Vitro Microsome Stability Assay (rat). In kind it is in vitro ADME. In short, it runs like this:
as §1

A short description of data set [9]: In Vitro Microsome Stability Assay (monkey). In kind it is in vitro ADME. In short, it runs like this:
as §1

Setting [10] is: human liver microsomes, 30 min w/ NADPH.
The mark [11] stands for this setting: mouse liver microsomes, 30 min w/ NADPH.
[12] abbreviates: rat liver microsomes, 30 min w/ NADPH.
The mark [13] stands for this setting: monkey liver microsomes, 30 min w/ NADPH.
The mark [14] stands for this setting: H929, read-out: 48 hr H929 Viability Celltiter-Glo: Mean EC50.
Where [15] appears, read: U266, read-out: 48 hr U266 Viability Celltiter-Glo: Mean EC50.

pEC50, pIC50: −log10 of the molar value. Like-named read-outs stand apart in the source and are kept apart here. Bounds are passed on as bounds.

Take `C[C@H]1CN(S(=O)(=O)c2ccc(N(C)C)cc2)CCCN(CC2CCCCC2)CCCN(S(=O)(=O)N2CC(c3ccccc3)C2)C1` [A101, 4-{[(3S)-9-(cyclohexylmethyl)-3-methyl-5-[(3-phenylazetidin-1-yl)sulfonyl]-1,5,9-triazacyclododecan-1-yl]sulfonyl}-N,N-dimethylaniline]: the pIC50 in data set [1] (Dox inducible, 293FRT/TO cells) was 6.66; in [2] (Dox inducible, 293FRT/TO cells) it was 5.47; in data set [3] (Dox inducible, 293FRT/TO cells), 6.25. In addition, the pEC50 was less than 4.60 in data set [4] (H929, Celltiter-Glo) and less than 4.60 in data set [5] (U266, Celltiter-Glo). In addition, the “Liver Microsome Stability-% Left after 30 min w/ NADPH (%) Human” value (“Liver Microsome Stability-% Left … (%) Human” below) in data set [6] (setting [10]) is on record as 30.2%. Further, the “Liver Microsome Stability-% Left after 30 min w/ NADPH (%) Mouse” value (from here on “Liver Microsome Stability-% Left … (%) Mouse”) in [7] (setting [11]) is on record as 20.8%. In addition, in data set [8] (setting [12]), the “Liver Microsome Stability-% Left after 30 min w/ NADPH (%) Rat” value (shortened to “Liver Microsome Stability-% Left … (%) Rat”) was 25.4%. Besides, the “Liver Microsome Stability-% Left after 30 min w/ NADPH (%) Monkey” value (from here on “Liver Microsome Stability-% Left … (%) Monkey”) in data set [9] (setting [13]) was found to be 18.8%.

Take `CCC(C)CN1CCCN(S(=O)(=O)c2ccc(N(C)C)cc2)C[C@H](C)CN(S(=O)(=O)N2CCc3cc(Cl)ccc3C2)CCC1` (stereo partly drawn) [A106, 4-{[(3S)-5-[(6-chloro-1,2,3,4-tetrahydroisoquinolin-2-yl)sulfonyl]-3-methyl-9-(2-methylbutyl)-1,5,9-triazacyclododecan-1-yl]sulfonyl}-N,N-dimethylaniline]: the pIC50 is 7.28 in [1] (Dox inducible, 293FRT/TO cells); 5.95 in data set [2] (Dox inducible, 293FRT/TO cells); 6.90 in data set [3] (Dox inducible, 293FRT/TO cells). Also, the negative logarithm of the EC50 (pEC50) in data set [4] (H929, Celltiter-Glo) was 6.04; in data set [5] (U266, Celltiter-Glo), less than 4.60. The “Liver Microsome Stability-% Left … (%) Human” value in data set [6] (setting [10]) was 7.18%. Also, the “Liver Microsome Stability-% Left … (%) Mouse” value in data set [7] (setting [11]) worked out at 8.81%. The “Liver Microsome Stability-% Left … (%) Rat” value in data set [8] (setting [12]) amounted to 18.9%. Moreover, the “Liver Microsome Stability-% Left … (%) Monkey” value in data set [9] (setting [13]) is 30.7%.

Take `C=C1CN(S(=O)(=O)c2ccc(N(C)C)cc2)CCCN(CC2CCCCC2)CCCN(S(=O)(=O)N2Cc3ccc(Cl)cc3C2)C1` [A89, 4-({5-[(5-chloro-2,3-dihydro-1H-isoindo1-2-yl)sulfonyl]-9-(cyclohexylmethyl)-3-methylidene-1,5,9-triazacyclododecan-1-yl}sulfonyl)-N,N-dimethylaniline]: the pIC50 is 7.09 in data set [1] (293FRT/TO), 5.92 in data set [2] (293FRT/TO) and 6.73 in data set [3] (293FRT/TO). The values for the pEC50 in data set [4] (setting [14]) and in data set [5] (setting [15]) were 5.76 and less than 4.60, respectively. The “Liver Microsome Stability-% Left … (%) Human” value in [6] (human, 30 min, NADPH) stood at 18.5%. Besides, the “Liver Microsome Stability-% Left … (%) Mouse” value in data set [7] (mouse, 30 min, NADPH) is on record as 17.1%. Besides, in data set [8] (rat, 30 min, NADPH), the “Liver Microsome Stability-% Left … (%) Rat” value turned out to be 22.2%. Further, in data set [9] (monkey, 30 min, NADPH), the “Liver Microsome Stability-% Left … (%) Monkey” value came out at 13.5%.

With `Cc1ccc(N2CCN(S(=O)(=O)N3CCCN(CC4CCCCC4)CCCN(S(=O)(=O)c4ccc(N(C)C)cc4)C[C@H](C)C3)CC2)cc1` [A99, 4-{[(3S)-9-(cyclohexylmethyl)-3-methyl-5-{[4-(4-methylphenyl)piperazin-1-yl]sulfonyl}-1,5,9-triazacyclododecan-1-yl]sulfonyl}-N,N-dimethylaniline], the pIC50 in data set [1] (293FRT/TO) is 6.94; in data set [2] (293FRT/TO), 5.45; in data set [3] (293FRT/TO), 6.46. The pEC50 in data set [4] (setting [14]) and in data set [5] (setting [15]) was less than 4.60 throughout. In addition, the “Liver Microsome Stability-% Left … (%) Human” value in data set [6] (setting [10]) worked out at 41.9%. In addition, the “Liver Microsome Stability-% Left … (%) Mouse” value in data set [7] (mouse, 30 min, NADPH) is 60.8%. In addition, in data set [8] (rat, 30 min, NADPH), the “Liver Microsome Stability-% Left … (%) Rat” value is 50.8%. The “Liver Microsome Stability-% Left … (%) Monkey” value in data set [9] (setting [13]) is 37%.

On to `CO/N=C1/CN(S(=O)(=O)c2ccc(N(C)C)cc2)CCCN(CC2CCCCC2)CCCN(S(=O)(=O)N2CCC(c3ccccc3)CC2)C1` [A88, (3Z)-9-(cyclohexylmethyl)-1-[4-(dimethylamino)benzenesulfonyl]-N-methoxy-5-[(4-phenylpiperidin-1-yl)sulfonyl]-1,5,9-triazacyclododecan-3-imine], for which the pIC50 in [1] (293FRT/TO) was 5.36; in data set [2] (293FRT/TO) it was less than 4.60; in [3] (293FRT/TO), less than 4.60. In addition, the pEC50 in [4] (setting [14]) and in data set [5] (setting [15]) was less than 4.60 in each case. Besides, the “Liver Microsome Stability-% Left … (%) Human” value in [6] (human, 30 min, NADPH) is 11.7%. For the same molecule, the “Liver Microsome Stability-% Left … (%) Mouse” value in [7] (mouse, 30 min, NADPH) was 15.9%. The “Liver Microsome Stability-% Left … (%) Rat” value in data set [8] (rat, 30 min, NADPH) stood at 15.2%. Besides, in [9] (monkey, 30 min, NADPH), the “Liver Microsome Stability-% Left … (%) Monkey” value was 1.33%.

A word on the pEC50: it is the negative decadic logarithm of the EC50, by convention in mol/L.
